These are literature values, as cited in patent US20060058589A1, “Animal model to evaluate visceral pain perception” (priority 2002, published 2006).

The data set relates to visceromotor response to duodenal distention. Conditions: conscious, freely moving rats; dose-dependent manner.

`CN1CC[C@]23c4c5ccc(O)c4O[C@H]2[C@@H](O)C=C[C@H]3[C@H]1C5` [morphine]: the “visceromotor response to duodenal distention” value was “inhibited”.
